Assay results as given in ChEMBL document CHEMBL1150040 (Bioorg Med Chem Lett, 1995).
pIC50: −log10 of the molar value.

Tests used:
[1] = target: T1, Protein kinase C beta type (Homo sapiens, UniProt P05771); assay: Inhibition of human Protein kinase C beta 1
[2] = target: Protein kinase C eta type (Homo sapiens, UniProt P24723); assay: Inhibition of human protein kinase C eta
[3] = target: T1, Protein kinase C beta type; assay: Inhibition of human Protein kinase C beta 2
[4] = target: Protein kinase C alpha type (Homo sapiens, UniProt P17252); assay: Inhibition of human Protein kinase C alpha
[5] = target: T2, Protein kinase C zeta type (Homo sapiens, UniProt Q05513); assay: Inhibition of Protein kinase C zeta
T2 sequence (Q05513 whole entry): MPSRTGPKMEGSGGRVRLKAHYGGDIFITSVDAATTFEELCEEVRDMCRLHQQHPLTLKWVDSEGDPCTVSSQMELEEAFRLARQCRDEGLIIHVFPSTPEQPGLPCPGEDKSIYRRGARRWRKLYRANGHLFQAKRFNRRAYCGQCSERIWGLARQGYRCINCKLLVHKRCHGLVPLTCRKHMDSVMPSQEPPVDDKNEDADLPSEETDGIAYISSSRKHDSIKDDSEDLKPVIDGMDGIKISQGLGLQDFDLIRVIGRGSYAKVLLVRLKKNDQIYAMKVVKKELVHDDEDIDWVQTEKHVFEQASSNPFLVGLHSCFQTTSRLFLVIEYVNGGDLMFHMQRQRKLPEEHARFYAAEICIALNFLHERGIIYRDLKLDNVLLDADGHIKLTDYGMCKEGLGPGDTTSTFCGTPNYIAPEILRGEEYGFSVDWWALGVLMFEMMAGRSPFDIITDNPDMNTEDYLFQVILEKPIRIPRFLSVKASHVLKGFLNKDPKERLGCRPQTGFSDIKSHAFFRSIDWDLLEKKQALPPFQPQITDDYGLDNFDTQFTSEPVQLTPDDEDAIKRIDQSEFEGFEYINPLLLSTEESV

[6] = target: Protein kinase C gamma type (Homo sapiens, UniProt P05129); assay: Inhibition of human Protein kinase C gamma
[7] = target: Protein kinase C delta type (Homo sapiens, UniProt Q05655); assay: Inhibition of human Protein kinase C delta
[8] = target: T3, Protein kinase C epsilon type (Homo sapiens, UniProt Q02156); assay: Inhibition of human Protein kinase C epsilon
T3 sequence (Q02156 whole entry): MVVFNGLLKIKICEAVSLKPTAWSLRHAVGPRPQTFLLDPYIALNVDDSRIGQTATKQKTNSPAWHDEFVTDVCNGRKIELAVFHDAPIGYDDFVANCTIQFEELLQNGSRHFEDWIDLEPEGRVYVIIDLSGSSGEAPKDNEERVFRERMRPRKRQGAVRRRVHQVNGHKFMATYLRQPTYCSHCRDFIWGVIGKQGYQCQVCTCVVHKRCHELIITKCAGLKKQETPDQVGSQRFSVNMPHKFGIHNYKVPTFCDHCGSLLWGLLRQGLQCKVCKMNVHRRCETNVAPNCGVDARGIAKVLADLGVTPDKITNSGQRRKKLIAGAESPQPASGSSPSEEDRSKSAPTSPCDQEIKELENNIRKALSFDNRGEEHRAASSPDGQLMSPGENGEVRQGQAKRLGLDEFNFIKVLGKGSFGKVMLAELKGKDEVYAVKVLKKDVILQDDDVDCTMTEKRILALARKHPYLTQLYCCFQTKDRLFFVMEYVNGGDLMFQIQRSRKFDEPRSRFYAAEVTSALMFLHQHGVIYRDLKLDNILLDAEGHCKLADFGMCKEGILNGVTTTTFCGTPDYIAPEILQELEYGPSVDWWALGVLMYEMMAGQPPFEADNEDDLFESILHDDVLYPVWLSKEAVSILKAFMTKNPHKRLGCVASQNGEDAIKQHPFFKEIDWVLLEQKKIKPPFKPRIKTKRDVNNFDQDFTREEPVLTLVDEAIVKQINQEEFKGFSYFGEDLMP

Sequence of Protein kinase C eta type (P24723 whole entry): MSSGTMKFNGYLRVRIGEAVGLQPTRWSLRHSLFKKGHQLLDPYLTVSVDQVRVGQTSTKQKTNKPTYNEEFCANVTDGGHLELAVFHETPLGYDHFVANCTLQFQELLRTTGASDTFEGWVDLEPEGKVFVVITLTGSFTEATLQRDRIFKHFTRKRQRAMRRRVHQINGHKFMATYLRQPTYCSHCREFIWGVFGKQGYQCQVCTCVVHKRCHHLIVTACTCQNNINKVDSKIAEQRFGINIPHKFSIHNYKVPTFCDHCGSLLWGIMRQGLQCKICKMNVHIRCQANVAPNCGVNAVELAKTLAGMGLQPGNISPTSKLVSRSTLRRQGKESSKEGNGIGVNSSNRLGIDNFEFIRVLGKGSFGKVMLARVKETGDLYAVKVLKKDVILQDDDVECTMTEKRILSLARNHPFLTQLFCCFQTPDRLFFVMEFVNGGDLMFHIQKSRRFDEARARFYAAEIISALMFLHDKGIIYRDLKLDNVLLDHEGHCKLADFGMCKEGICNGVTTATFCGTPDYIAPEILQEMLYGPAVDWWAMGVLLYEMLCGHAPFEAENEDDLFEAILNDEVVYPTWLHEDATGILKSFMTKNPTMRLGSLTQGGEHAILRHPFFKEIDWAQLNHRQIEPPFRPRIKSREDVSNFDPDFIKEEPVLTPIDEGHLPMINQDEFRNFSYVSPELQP
T1 sequence (P05771 whole entry): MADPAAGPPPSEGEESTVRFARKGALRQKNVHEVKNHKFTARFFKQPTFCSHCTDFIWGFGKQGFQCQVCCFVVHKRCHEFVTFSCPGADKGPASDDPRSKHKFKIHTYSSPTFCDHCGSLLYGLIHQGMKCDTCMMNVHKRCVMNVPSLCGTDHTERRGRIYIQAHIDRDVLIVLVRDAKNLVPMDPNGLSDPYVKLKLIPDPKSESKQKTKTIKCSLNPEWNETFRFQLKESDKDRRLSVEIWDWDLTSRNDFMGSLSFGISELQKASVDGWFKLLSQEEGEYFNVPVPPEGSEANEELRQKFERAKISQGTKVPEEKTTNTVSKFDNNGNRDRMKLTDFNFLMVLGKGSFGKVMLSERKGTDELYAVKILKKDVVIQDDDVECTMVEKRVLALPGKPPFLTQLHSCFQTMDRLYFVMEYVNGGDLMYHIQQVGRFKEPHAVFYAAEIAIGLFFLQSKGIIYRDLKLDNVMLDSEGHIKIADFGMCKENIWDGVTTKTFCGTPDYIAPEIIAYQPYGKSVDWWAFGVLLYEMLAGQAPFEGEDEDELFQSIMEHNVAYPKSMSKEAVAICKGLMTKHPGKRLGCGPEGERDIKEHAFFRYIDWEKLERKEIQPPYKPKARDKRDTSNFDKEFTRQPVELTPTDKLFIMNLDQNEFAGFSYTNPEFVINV
Sequence of Protein kinase C delta type (Q05655 whole entry): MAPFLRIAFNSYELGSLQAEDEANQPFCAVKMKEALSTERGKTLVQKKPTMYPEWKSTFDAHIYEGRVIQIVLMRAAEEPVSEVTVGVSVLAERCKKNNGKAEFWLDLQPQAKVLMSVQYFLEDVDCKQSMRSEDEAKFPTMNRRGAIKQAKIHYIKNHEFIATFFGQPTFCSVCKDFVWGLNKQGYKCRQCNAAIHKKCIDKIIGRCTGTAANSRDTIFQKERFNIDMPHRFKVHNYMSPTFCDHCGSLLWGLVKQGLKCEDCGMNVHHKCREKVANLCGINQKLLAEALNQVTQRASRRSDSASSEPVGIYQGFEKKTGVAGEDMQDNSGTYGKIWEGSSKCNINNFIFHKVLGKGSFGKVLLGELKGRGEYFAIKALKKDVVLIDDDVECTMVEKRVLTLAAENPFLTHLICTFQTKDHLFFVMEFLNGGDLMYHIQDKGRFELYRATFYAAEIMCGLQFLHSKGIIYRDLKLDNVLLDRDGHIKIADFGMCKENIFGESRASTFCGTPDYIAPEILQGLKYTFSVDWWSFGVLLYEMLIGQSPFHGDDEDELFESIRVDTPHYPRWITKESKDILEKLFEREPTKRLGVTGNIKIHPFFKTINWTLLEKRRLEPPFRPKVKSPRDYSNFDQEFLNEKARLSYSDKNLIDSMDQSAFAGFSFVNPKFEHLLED

| Structure (SMILES) | pIC50 [1] | pIC50 [2] | pIC50 [3] | pIC50 [4] | pIC50 [5] | pIC50 [6] | pIC50 [7] | pIC50 [8] |
| --- | --- | --- | --- | --- | --- | --- | --- | --- |
| O=C(N[C@@H]1CCCCC[C@H]1OC(=O)c1cc(O)c(C(=O)c2c(O)cccc2C(=O)O)c(O)c1)c1ccc(O)cc1 | 6.66 | 7.22 | 6.37 | 6.57 | < 3.82 | 7.22 | 7.05 | 6.55 |
| O=C(N[C@@H]1CCC[C@H]1OC(=O)c1cc(O)c(C(=O)c2c(O)cccc2C(=O)O)c(O)c1)c1ccc(O)cc1 | 7.40 | 9.22 | 7.30 | 7.40 |  | 8.00 | 9.05 | 7.30 |
| O=C(N[C@@H]1CNCC[C@H]1OC(=O)c1cc(O)c(C(=O)c2c(O)cccc2C(=O)O)c(O)c1)c1ccc(O)cc1 | 5.66 | 7.10 | 5.33 | 5.29 | < 3.82 | 5.66 | 7.30 | 5.74 |

The next compounds have a higher pIC50 [1] than those just listed; values first:

| pIC50 [1] | pIC50 [2] | pIC50 [3] | pIC50 [4] | pIC50 [5] | pIC50 [6] | pIC50 [7] | pIC50 [8] | Structure (SMILES) |
| --- | --- | --- | --- | --- | --- | --- | --- | --- |
| 7.49 | 7.66 | 7.36 | 7.13 | 5.46 | 7.47 | 7.49 |  | O=C(N[C@@H]1CNCCC[C@H]1OC(=O)c1cc(O)c(C(=O)c2c(O)cccc2C(=O)O)c(O)c1)c1ccc(O)cc1 (racemic) [BALANOL] |
| 7.77 | 8.40 | 7.48 | 7.66 | < 6.82 | 7.89 | 8.30 | 8.00 | O=C(N[C@@H]1CNC[C@H]1OC(=O)c1cc(O)c(C(=O)c2c(O)cccc2C(=O)O)c(O)c1)c1ccc(O)cc1 |
